Data from patent US4435405A, “Quinoline derivatives which are 5-hydroxytryptamine antagonists” (Imperial Chemical Industries PLC, priority 1981, dated 1984).

Columns and labels:
LD50 in the mouse = conditions: in vivo
LD50 in the rat = conditions: in vivo, female
[1] = ip, intraperitoneally in the mouse

| Structure (SMILES) | LD50 (LD50 in the mouse; [1]) [mg/kg] | LD50 (LD50 in the mouse; ip, mouse, male, intraperitoneal) [mg/kg] | LD50 (LD50 in the mouse; mouse, male, oral) [mg/kg] | LD50 (LD50 in the rat; oral) [mg/kg] | LD50 (LD50 in the rat; ip, intraperitoneal) [mg/kg] |
| --- | --- | --- | --- | --- | --- |
| COc1ccccc1-c1cc2ccccc2nc1SCCN(C)C.Cl [2-(2-dimethylaminoethylthio)-3-(o-methoxyphenyl)-quinoline hydrochloride] | ~150 | – | – | – | – |
| CC(C)c1cc2ccccc2nc1SCCN(C)C.Cl [2-(2-dimethylaminoethylthio)-3-isopropylquinoline hydrochloride] | ~100 | – | – | – | – |
| CN(C)CCSc1nc2ccccc2cc1-c1ccccc1.Cl [2-(2-dimethylaminoethylthio)-3-phenylquinoline hydrochloride] | – | 75 | 485 | > 1000 | 128 |
